Assay results taken from US5733893A, “Method of identifying molecules that regulate FGF activity” (Washington University, priority 1995, dated 1998).
“Also recorded” adds a separate entry of the source.

Key:
[1] = tested on: FGFR1-expressing BaF3 cells; assay: bFGF mitogenic activity, 3H-thymidine incorporation into FGFR1-expressing BaF3 cells; format: cell-based; settings: for mitogenic activity with bFGF (in words): FGFR1-expressing BaF3 cells; for Mitogenic activity: relative concentration (wt/vol.) required to incorporate 2 × 10^4 cpm 3H-thymidine into F32 cell DNA: relative to heparin (1.0), ± standard deviation; for mitogenic activity with bFGF (in words) / Mitogenic activity: relative concentration (wt/vol.) required to incorporate 2 × 10^4 cpm 3H-thymidine into F32 cell DNA: bFGF; for fold more active than SOS: FGFR1-expressing BaF3 cell growth with bFGF
Source text: This cell line was used to assay synthetic heparin/HS molecules as potential activators or inhibitors of heparin/HS-dependent mitogenesis (3).

[2] = tested on: FGFR1-expressing BaF3 cells; assay: aFGF mitogenic activity, 3H-thymidine incorporation into FGFR1-expressing BaF3 cells; format: cell-based
Source text: Activation of bFGF mitogenic activity as measured by ^3 H-thymidine incorporation into FGFR1-expressing BaF3 cells treated with 150 pM bFGF and increasing concentrations of the indicated oligosaccharides is shown. FIG. 1B.
(§1) The FGFR1-expressing BaF3 cell line was used to assay synthetic heparin/HS molecules as potential activators or inhibitors of heparin/HS-dependent mitogenesis by an assay procedure published previously (3). Such cell lines, which express FGRF1, require heparin/HS and FGF for growth (3). […]
However, their potency relative to that of heparin is less than that observed with bFGF (FIG. 1B).

bFGF [3] = target: T1, bFGF (Homo sapiens, UniProt P09038); assay: competition with 125I-heparin binding to bFGF; settings: for IC50: 4 nM FGF, read-out: IC50 (50% competition for 125I-heparin binding to bFGF) (converted); for binding to bFGF/FGF (in words): competition with 125I-heparin
T1 construct: purchased Scios Nova
Description: FIG. 2A: Binding of oligosaccharides to bFGF as determined by competition with ^125 I-heparin (30).
(§2) The ability of these small oligosaccharides to compete with the binding on ^125 I-heparin to FGF was also assayed. Heparin iodination was carried out by previously published procedure (30). Heparin binding to FGF was determined by incubating 4 nM FGF with ^125 I-heparin and competitor polysaccharide. Complexes were immunoprecipitated with 1:250 dilutions of monoclonal antibody DG2 (DuPont/Merck) (for bFGF) or a polyclonal antibody (for aFGF), and protein A SEPHAROSE (Sigma Chemical Co.). Washing and quantitation was carried out by procedures previously published for soluble receptor-binding assays (3).
(§3) 12. Heparin iodination was as in (30). Heparin binding to FGF was determined by incubating 4 nM FGF with ^125 I-heparin and competitor polysaccharide. Complexes were immunopredpitated with 1:250 dilutions of monoclonal antibody DG2 (for bFGF) or a polydonal antibody (for aFGF), and protein A sepharose (Sigma). Washing and quantitation was as previously described for soluble receptor binding assays (3).

aFGF = assay: competition with 125I-heparin binding to aFGF
Description: as §2, §3

bFGF-FRAP binding = assay: binding of 125I-bFGF to soluble receptor FRAP in presence of oligosaccharide; settings: oligosaccharides 2 μg/ml or increasing concentrations
Description: FIG. 2B: Binding of ^125 I-bFGF to FRAP (3), a soluble receptor, in the presence of the indicated oligosaccharide: *, no heparin added; heparin, 50 ng/ml; the remaining oligosaccharides (Di-1 to SOS) were added at a concentration of 2 μg/ml. FGFs were labeled by the Chloramine T method as previously described (31).
(§4) FIG. 2C: Acidic FGF binding to FRAP; FIG. 2D:, basic FGF binding to FRAP. ^125 I-FGFs were incubated with FRAP in the presence of increasing concentrations of heparin or Tri-3; Binding assays were performed as previously described (3).
as §1
Binding of bFGF to a soluble FGFR-alkaline phosphatase fusion protein (FRAP) or to a cell-surface FGFR is enhanced by heparin/HS or by heparin-derived oligosaccharides (8 to 12 sugar residues) (3,4). The ability of heparin/HS-derived di- and tri-saccharides to enhance FGF-FRAP binding in vitro was measured (3).

bFGF [4] = target: T1, bFGF; assay: bFGF dimerization by crosslinking and electrophoresis; format: biochemical; settings: for induction of FGF dimers (in words): crosslinking
Description: 670 nM bFGF and 3×10^5 cpm ^125 I-bFGF were incubated with the indicated concentration of (μg/ml) Tri-3 or HS-16. Crosslinking and electrophoresis were performed as previously described (3). Dimer (45 kD) band intensities were quantified by scanning densitometry and plotted above each lane. Molecular weight markers (kD) are shown at the right.

aFGF binding to FRAP = assay: binding of 125I-aFGF to soluble receptor FRAP in presence of oligosaccharide; settings: increasing concentrations
Description: as §4, §1

FGF receptors = assay: dimerization of FGF receptors on BaF3-FGFR1 cells by crosslinking; format: cell-based; settings: BaF3-FGFR1 cells with FGF-2
Description: Binding media (DMEM/0.1% BSA) was supplemented with the indicated concentration of heparin or Tri-3.(*) 200 ng/ml unlabeled FGF-2 added to binding media; Cells were washed once with the same media used for binding, and once with PBS. Crosslinking was as described previously (27).
Crosslinked receptors were electrophoresed on a 5% SDS polyacrylamide gel under reducing condition, and visualized by autoradiography. The lower band corresponds to receptor monomers crosslinked to FGF-2. The upper band corresponds to receptor dimers crosslinked to each other and to FGF-2. Molecular weights (kD) are shown at the right.
Binding media (DMEM/0.1% BSA) was supplemented with the indicated concentration of heparin or Tri-3.(*) 200 ng/ml unlabeled FGF-2 added to binding media; Cells were washed once with the same media used for binding, and once with PBS. Crosslinking was as described previously
Crosslinked receptors were electrophoresed on a 5% SDS polyacrylamide gel under reducing condition, and visualized by autoradiography. The lower band corresponds to receptor monomers crosslinked to FGF-2. The upper band corresponds to receptor dimers crosslinked to each other and to FGF-2.

T1 sequence (P09038 134-288): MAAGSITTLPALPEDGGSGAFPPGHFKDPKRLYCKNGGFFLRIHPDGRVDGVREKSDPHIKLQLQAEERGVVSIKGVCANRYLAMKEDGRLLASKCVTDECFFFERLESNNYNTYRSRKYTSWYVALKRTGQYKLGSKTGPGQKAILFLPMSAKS

SMILES | IC50 (bFGF [3]) [µM] | binding to bFGF/FGF (in words) (bFGF [3]) | binding to aFGF (in words) (aFGF) | optimal concentration for dimerization activity (bFGF [4]; 670 nM bFGF) [µg/mL] | mitogenic activity with bFGF (in words) [1] | Mitogenic activity: relative concentration (wt/vol.) required to incorporate 2 × 10^4 cpm 3H-thymidine into F32 cell DNA [1] | proliferation of FGFR1-expressing BaF3 cells in the presence of aFGF (in words) [2] | enhancement of bFGF-FRAP binding (in words) (bFGF-FRAP binding) | fold more active than SOS [1] [fold] | mitogenic activity with bFGF (in words) ([1]; listed as D-3) | induction of FGF dimers (in words) (bFGF [4]) | mitogenic activity with bFGF (in words) ([1]; listed as D-4) | aFGF binding to FRAP (in words) (aFGF binding to FRAP) | dimerization of FGF receptors (in words) (FGF receptors)
CO[C@H]1O[C@H](CO)[C@@H](O[C@@H]2O[C@@H](C(=O)O)[C@@H](O)[C@H](O)[C@H]2O)[C@H](O)[C@H]1NC(C)=O [Di-1, α-L-IdoA-(1→4)-α-D-GlcNAc-1→OMe] | – | – | – | – | no activity | – | – | – | – | – | – | – | – | –
CO[C@@H]1O[C@H](C(=O)O)[C@@H](O[C@H]2O[C@H](CO)[C@@H](O[C@@H]3O[C@H](C(=O)O)[C@@H](O)[C@H](O)[C@H]3O)[C@H](O)[C@H]2NC(C)=O)[C@H](O)[C@H]1O [Tri-1, β-D-GlcA-(1→4)-α-D-GlcNAc-(1→4)-β-D-GlcA-1→OMe] | 19.9 | bind and affinity higher than that of SOS | bind | – | active at concentrations comparable to that of heparin; also recorded: higher than expected mitogenic activity | 1.2 ± 0.2 | stimulate the proliferation | inability of Tri-1 to enhance FGF-FRAP binding | – | – | – | – | – | –
CO[C@H]1O[C@H](CO)[C@@H](O[C@@H]2O[C@@H](C(=O)O)[C@@H](O)[C@H](O)[C@H]2O)[C@H](O)[C@H]1NS(=O)(=O)O [Di-2, α-L-IdoA-(1→4)-α-D-GlcNSO3 -1→OMe] | – | affinity less than that of SOS | – | – | intermediate mitogenic activity; also recorded: higher than expected mitogenic activity | 69.5 ± 9.6 | – | – | – | – | – | – | – | –
CO[C@H]1O[C@H](CO)[C@@H](O[C@@H]2O[C@H](C(=O)O)[C@@H](O)[C@H](O)[C@H]2O)[C@H](O)[C@H]1NC(C)=O [Di-3, β-D-GlcA-(1→4)-α-D-GlcNAc-1→OMe] | – | bind | bind | – | intermediate mitogenic activity | 26.0 | – | enhance bFGF-FRAP binding | 55 | the most active of the disaccharides | induce FGF dimers as well as higher order oligomers | – | – | –
CO[C@@H]1O[C@H](C(=O)O)[C@@H](O[C@H]2O[C@H](CO)[C@@H](O)[C@H](O)[C@H]2NC(C)=O)[C@H](O)[C@H]1O [Di-5, D-GlcNAc-(1→4)-β-D-GlcA-1→OMe] | – | – | – | – | intermediate mitogenic activity | 463.6 | – | – | – | – | – | – | – | –
CO[C@@H]1O[C@H](C(=O)O)[C@@H](O[C@H]2O[C@H](CO)[C@@H](O[C@@H]3O[C@@H](C(=O)O)[C@@H](O)[C@H](O)[C@H]3O)[C@H](O)[C@H]2NC(C)=O)[C@H](O)[C@H]1O [Tri-3, α-L-IdoA-(1→4)-α-D-GlcNAc-(1→4)-β-D-GlcA-1→OMe] | 9.87 | bind and affinity higher than that of SOS | bind | 35 | active at concentrations comparable to that of heparin; also recorded: higher than expected mitogenic activity; also recorded: the most active compound tested | 3.2 | stimulate the proliferation | enhance bFGF-FRAP binding; also recorded: increases in a dose-dependent manner; also recorded: reproducibly exceeds that with heparin | – | – | induce FGF dimers as well as higher order oligomers | – | increases in a dose-dependent manner | dimerization of FGF receptors induced

Further lines, with some results ahead:

IC50 (bFGF [3]) [µM] | binding to bFGF/FGF (in words) (bFGF [3]) | binding to aFGF (in words) (aFGF) | optimal concentration for dimerization activity (bFGF [4]; 670 nM bFGF) [µg/mL] | SMILES | mitogenic activity with bFGF (in words) [1] | Mitogenic activity: relative concentration (wt/vol.) required to incorporate 2 × 10^4 cpm 3H-thymidine into F32 cell DNA [1] | proliferation of FGFR1-expressing BaF3 cells in the presence of aFGF (in words) [2] | enhancement of bFGF-FRAP binding (in words) (bFGF-FRAP binding) | fold more active than SOS [1] [fold] | mitogenic activity with bFGF (in words) ([1]; listed as D-3) | induction of FGF dimers (in words) (bFGF [4]) | mitogenic activity with bFGF (in words) ([1]; listed as D-4) | aFGF binding to FRAP (in words) (aFGF binding to FRAP) | dimerization of FGF receptors (in words) (FGF receptors)
94.6 | bind | bind | – | O=S(=O)(O)OC[C@H]1O[C@@](COS(=O)(=O)O)(O[C@H]2O[C@H](COS(=O)(=O)O)[C@@H](OS(=O)(=O)O)[C@H](OS(=O)(=O)O)[C@H]2OS(=O)(=O)O)[C@@H](OS(=O)(=O)O)[C@@H]1OS(=O)(=O)O [SOS, sucrose octasulfate, reference compound] | minimal biological activity | 1380.8 ± 30.6 | – | – | – | – | – | – | – | –
– | affinity less than that of SOS | – | – | CO[C@@H]1O[C@H](C(=O)O)[C@@H](O[C@H]2O[C@H](CO)[C@@H](O[C@@H]3O[C@@H](C(=O)O)[C@@H](O)[C@H](O)[C@H]3O)[C@H](O)[C@H]2NS(=O)(=O)O)[C@H](O)[C@H]1O [Tri-2, α-L-IdoA-(1→4)-α-D-GlcNSO3 -(1→4)-β-D-GlcA-1→OMe] | intermediate mitogenic activity; also recorded: lack of activity | 470.6 ± 25.6 | – | – | – | – | – | – | – | –
– | bind | bind | – | CO[C@H]1O[C@H](CO)[C@@H](O[C@@H]2O[C@H](C(=O)O)[C@@H](O)[C@H](O)[C@H]2O)[C@H](O)[C@H]1NS(=O)(=O)O [Di-4, β-D-GlcA-(1→4)-α-D-GlcNSO3 -1→OMe] | intermediate mitogenic activity | 24.7 | – | enhance bFGF-FRAP binding | 55 | – | – | the most active of the disaccharides | – | –
